Reference: patent US20080119434A1, “Sir2a-based therapeutic and prophylactic methods” (The Trustees of Colubia University, priority 2001, published 2008)
Where two headings read alike, the source gives them in different places. Values belong to the molecule of their own block, whether it stands above or below them. Non-standard residues stand in square brackets, D forms with d. Residues, ends and D or L forms follow the SMILES beside them. Nle = CCCC[C@H](N)C(=O)O

Tests used:
[1] = test system: acetylated p53 in H460 cells; assay: Acetylation levels of endogenous p53 in H460 cells during DNA damage response (western blot); assay type: cell-based, human; details: for acetylation level of p53, agent added to etoposide and TSA: etoposide + TSA + agent vs etoposide + TSA, nicotinamide 5 mM
Experimental: FIG. 3. […] 2.5 μg of ^14C-labeled acetylated p53 (lane 1) was incubated with 10 ng of purified Sir2α and 50 μM NAD alone (lane 2), or in the presence of either 5 mM of nicotinamide (lane 3) or 3 mM of 3-AB (3-aminobenzamide) (lane 4) for 60 min at 30° C. The proteins were analyzed by resolution on SDS-PAGE and autoradiography (upper) or Coomassie blue staining (lower). […] The cell extracts from untreated cells (lane 1), or treated with ALLN (50 μM) were also included (lane 6).
After treatment, the cells were harvested for western blot analysis. The rabbit polyclonal antibody specific for p300-mediated acetylated p53-[α-p53(Ac)-C] was raised and purified against the acetylated human p53 C-terminal peptide [p53 (Ac)-C: H-S55GQSTSRH55LMF-OH (5=acetylated Lysine)] as described before (Luo et al., 2000). In the case of cotransfection assays testing for p53 acetylation levels, H1299 cells were transfected with 5 μg of CMV-p53 plasmid DNA, 5 μg of CMV-p300 plasmid DNA, and 10 μg of pcDNA3—Sir2α plasmid DNA as indicated. […] The cell extracts were resolved by either 8% or 4-20% SDS-PAGE gels (Novex) and analyzed by western blot with α-p53(Ac)-C and α-p53(DO-1).

IMR-90 cells [2] = test system: IMR-90 cells
Experimental: The cells were analyzed for apoptotic cells (subG1) according to DNA content (PI staining). […] Cells were either not treated (I) or treated with 100 μM H2O2 (II, III, IV) for 24 hr. […] Both mock infected cells and pBabe-Sir2α infected cells were either not treated (I and III) or treated with 200 μM H2O2 (II and IV). 24 hr later, the cells were photographed under a microscope.
(§2) Both mock infected cells and pBabe-hSIRT1-363Y infected cells were either not treated (I and III) or treated with 50 μM H2O2 (II and IV) (E), or treated with different concentrations of adriamycin as indicated. 48 hr later, the cells were collected for analysis (D).
IMR-90 cells were infected with either a pBabe retrovirus empty vector or a pBabe retrovirus containing Sir2α, and cultured for a week under pharmacological selection.
(§3) IMR-90 cells were infected with either a pBabe retrovirus empty vector or a pBabe retrovirus containing hSIRT1-363Y, and cultured for a week under pharmacological selection.
After one-week selection, the cells were either frozen for stock or immediately used for further analysis.

Sir2α = target: T1, Sir2α (Mus musculus, UniProt Q923E4); assay: In vitro p53 deacetylation assay with purified Flag-tagged Sir2α; assay type: biochemical; details: 10 ng Sir2α, 50 μM NAD, 60 min at 30° C.; TSA 500 nM, nicotinamide 5 mM, 3-AB 3 mM
T1 construct: To construct Sir2α expression constructs, the full-length cDNA was subcloned from pET28a-Sir2α; Flag (N); made in house
T1 sequence (Q923E4 1-737): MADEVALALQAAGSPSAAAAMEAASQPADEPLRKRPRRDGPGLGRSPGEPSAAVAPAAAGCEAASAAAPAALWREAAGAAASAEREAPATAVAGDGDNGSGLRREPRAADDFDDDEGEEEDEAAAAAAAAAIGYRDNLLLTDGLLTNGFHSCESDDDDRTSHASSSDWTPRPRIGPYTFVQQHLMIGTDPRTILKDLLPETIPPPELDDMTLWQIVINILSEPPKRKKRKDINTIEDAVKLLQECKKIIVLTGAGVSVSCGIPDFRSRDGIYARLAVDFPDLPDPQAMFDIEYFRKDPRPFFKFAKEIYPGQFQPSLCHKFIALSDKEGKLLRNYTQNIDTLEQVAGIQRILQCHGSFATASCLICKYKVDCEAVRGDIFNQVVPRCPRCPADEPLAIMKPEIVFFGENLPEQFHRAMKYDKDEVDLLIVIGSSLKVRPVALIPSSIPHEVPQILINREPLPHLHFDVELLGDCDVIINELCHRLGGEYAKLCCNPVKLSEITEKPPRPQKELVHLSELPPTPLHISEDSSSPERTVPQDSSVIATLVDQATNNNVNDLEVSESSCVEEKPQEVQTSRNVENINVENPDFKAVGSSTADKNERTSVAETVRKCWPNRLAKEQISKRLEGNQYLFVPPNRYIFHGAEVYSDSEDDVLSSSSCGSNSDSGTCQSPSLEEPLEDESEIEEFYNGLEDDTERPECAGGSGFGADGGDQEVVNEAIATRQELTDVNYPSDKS
Experimental: FIG. 2. TSA-insensitive deacetylation of p53 by mammalian Sir2α. (A) Colloidal blue staining of a SDS-PAGE gel containing protein Marker (lane 1), a control eluate from M2 loaded with untransfected cell extract (lane 2), and 100 ng of the highly purified Flag-tagged Sir2α recombinant protein (lane 3). (B) Deacetylation of p53 by Sir2α. […] NAD (50 μM) was also added in each reaction except lane 2. The proteins were analyzed by resolution on SDS-PAGE and autoradiography (upper) or Coomassie blue staining (lower). (C) Reduction of the steady-state levels of acetylated p53 by both mouse Sir2α and human SIRT1 expression. Western blot analysis of H1299 cell extracts from the cells cotransfected with p53 and p300 (lane 1), or in combination with Sir2α (lane 2), or in combination with hSIRT1 (lane 4), or Sir2α-355A (lane 3), or hSIRT1-363Y (lane 5), or hSIRT5 (lane 6), or PARP (lane 7) by acetylated p53-specific antibody (upper) or DO-1 for total p53 (lower). The highly conserved histidine residue at the core domain was replaced by alanine for mouse Sir2α (a.a. 355) Sir2α-355A), or replaced by tyrosine for human SIRT1 (a.a. 363) (hSIRT1-363Y). […] The acetylated p53 levels in the cells cotransfected with p53 and p300 (lanes 1, 3), or cotransfected with p53, p300 and Sir2α (lanes 2, 4).
FIG. 3. Abrogation of mammalian Sir2α mediated deacetylation of p53 by nicotinamide. (A) Sir2α-mediated deacetylation of p53 is inhibited by nicotinamide. […] The proteins were analyzed by resolution on SDS-PAGE and autoradiography (upper) or Coomassie blue staining (lower). […]
The Flag-tagged Sir2α cells were established and expanded in DMEM medium, and cell extracts were prepared essentially as previously described (Luo et al., 2000; Gu et al., 1999). […] The eluted proteins were resolved by a SDS-PAGE gel and analyzed by colloidal blue staining (Novex). […] The reactions were resolved on SDS-PAGE and analyzed by Coomassie blue staining and autoradiography.

[3] = test system: acetylated p53 in H1299 cells; assay: Acetylated p53 levels in H1299 cells cotransfected with p53 and p300 (western blot); assay type: cell-based, human; details: H1299 cells cotransfected with p53 and p300, 500 nM TSA vs not treated
Experimental: FIG. 2. TSA-insensitive deacetylation of p53 by mammalian Sir2α. (A) Colloidal blue staining of a SDS-PAGE gel containing protein Marker (lane 1), a control eluate from M2 loaded with untransfected cell extract (lane 2), and 100 ng of the highly purified Flag-tagged Sir2α recombinant protein (lane 3). (B) Deacetylation of p53 by Sir2α. […] NAD (50 μM) was also added in each reaction except lane 2. The proteins were analyzed by resolution on SDS-PAGE and autoradiography (upper) or Coomassie blue staining (lower). (C) Reduction of the steady-state levels of acetylated p53 by both mouse Sir2α and human SIRT1 expression. Western blot analysis of H1299 cell extracts from the cells cotransfected with p53 and p300 (lane 1), or in combination with Sir2α (lane 2), or in combination with hSIRT1 (lane 4), or Sir2α-355A (lane 3), or hSIRT1-363Y (lane 5), or hSIRT5 (lane 6), or PARP (lane 7) by acetylated p53-specific antibody (upper) or DO-1 for total p53 (lower). The highly conserved histidine residue at the core domain was replaced by alanine for mouse Sir2α (a.a. 355) Sir2α-355A), or replaced by tyrosine for human SIRT1 (a.a. 363) (hSIRT1-363Y). […]
(§1) After treatment, the cells were harvested for western blot analysis. […] The cell extracts were resolved by either 8% or 4-20% SDS-PAGE gels (Novex) and analyzed by western blot with α-p53(Ac)-C and α-p53(DO-1).

[4] = test system: Sir2α-mediated deacetylation of endogenous p53 in MEF p53(+/+) cells; assay: Sir2α-mediated deacetylation of endogenous p53 in pBabe-Sir2α infected MEF p53(+/+) cells (western blot); assay type: cell-based, mouse; details: etoposide and TSA in combination with nicotinamide, 6 hr
Experimental: FIG. 3. Abrogation of mammalian Sir2α mediated deacetylation of p53 by nicotinamide. (A) Sir2α-mediated deacetylation of p53 is inhibited by nicotinamide. 2.5 μg of ^14C-labeled acetylated p53 (lane 1) was incubated with 10 ng of purified Sir2α and 50 μM NAD alone (lane 2), or in the presence of either 5 mM of nicotinamide (lane 3) or 3 mM of 3-AB (3-aminobenzamide) (lane 4) for 60 min at 30° C. The proteins were analyzed by resolution on SDS-PAGE and autoradiography (upper) or Coomassie blue staining (lower). (B) Enhancement of endogenous p53 acetylation levels by nicotinamide. […] (C) The Sir2α-mediated deacetylation of endogenous p53 was abrogated in the presence of nicotinamide. […] The cell extracts from untreated cells (lane 1), or treated with ALLN (50 μM) were also included (lane 6).
Furthermore, we examined the effect of Sir2α expression on endogenous levels of acetylated p53. […] We first examined the protein levels of p53 activation in response to DNA damage in these cells by western blot analysis.
as §1

IMR-90 cells [5] = assay: DNA damage-induced cell death by adriamycin in IMR-90 cells; assay type: cell-based, human; details: pBabe-hSIRT1-363Y infected vs mock infected IMR-90 cells, different concentrations of adriamycin, 48 hr
Experimental: as §2, §3

SMILES: CCCC[C@@H](C=O)NC(=O)[C@H](CC(C)C)NC(=O)[C@H](CC(C)C)NC(C)=O [ALLN] (Ac-Leu-Leu-[Nle]-aldehyde)
acetylation of p53, single agent vs untreated cells ([1]; 6 hr, etoposide 20 μM, ALLN 50 μM): no significant p53 acetylation was detected

SMILES: OO [H2O2, hydrogen peroxide]
cells being killed (IMR-90 cells [2]; mock (pBabe-vector) infected IMR-90 cells, 200 μM H2O2, 24 hr): more than 80%
susceptibility to H2O2-induced cell death (IMR-90 cells [2]; mock infected IMR-90 cells, 50 μM H2O2): relatively resistant
cells surviving (IMR-90 cells [2]; pBabe-Sir2α infected IMR-90 cells, 200 μM H2O2, 24 hr): about 70%
cells surviving (IMR-90 cells [2]; pBabe-hSIRT1-363Y infected IMR-90 cells, 50 μM H2O2): less than 30%

effect on Sir2α-mediated deacetylation of 14C-labeled acetylated p53 (Sir2α): no apparent effect
SMILES: CC(/C=C/C(=O)NO)=C\[C@@H](C)C(=O)c1ccc(N(C)C)cc1 [TSA, Trichostatin A]
acetylation level of p53 during DNA damage response, agent added to etoposide ([1]; 6 hr, etoposide plus TSA (0.5 μM) vs etoposide alone): mild enhancement
steady state level of acetylated p53 [3]: elevated

effect on Sir2α-mediated deacetylation of 14C-labeled acetylated p53 (Sir2α): completely inhibited
SMILES: NC(=O)c1cccnc1 [nicotinamide]
acetylation level of p53, agent added to etoposide and TSA ([1]; 6 hr): super induction
cellular levels of acetylated p53 induced by DNA damage ([1]; etoposide plus nicotinamide vs etoposide alone): enhanced
effect on Sir2α-mediated deacetylation of endogenous p53 [4]: completely abrogated

effect on Sir2α-mediated deacetylation of 14C-labeled acetylated p53 (Sir2α): no significant effect
SMILES: NC(=O)c1cccc(N)c1 [3-AB, 3-aminobenzamide]
acetylation level of p53, agent added to etoposide and TSA ([1]; 6 hr): no effect

SMILES: COc1cccc2c1C(=O)c1c(O)c3c(c(O)c1C2=O)C[C@@](O)(C(=O)CO)C[C@@H]3O[C@H]1C[C@H](N)[C@H](O)[C@H](C)O1 [adriamycin]
sensitivity to DNA damage-induced cell death (IMR-90 cells [5]): much more sensitive
